# Source: patent publication US20170319256A1, “METHOD OF SELECTIVELY KILLING CANCER CELLS USING LOW-TEMPERATURE PLASMA JET DEVICE AND METHOD OF TREATING TUMORS USING THE SAME” (Dong-A University Research Foundation for Industry-Academy …, priority 2016, published 2017)
# Legend:
# [1] = test system: A549 and SK-MEL2 cells; assay: γH2AX phosphorylation immunofluorescence (marker for DNA breaks); type: cell-based, human; settings: FIG. 4A
# Protocol: (§1) Cells were treated using a previously reported plasma jet device. A typical operating condition of the pulsed-dc plasma jet has the applied voltage 1.6 kV, repetition frequency 50 kHz, and duty ratio 10%. The working gas (helium) and reactive gas (oxygen) flow rate were kept constant at 500 and 5 SCCM (SCCM denotes cubic centimeter per minute at standard temperature and pressure), respectively. The cells were cultured on 12-mm microscope cover glass coated with gelatin from porcine skin (Sigma-Aldrich) and were treated with helium generated-NTP with or without the flow of oxygen gas. The exposed cover glass was then transferred to 12-well plates containing fresh medium and incubated at 37° C. in a humidified incubator supplemented with 5% CO2. If necessary, the cells were treated with 5 or 10 μM of specific inhibitors targeting ATR (ETP46464), ATM (KU55933), DNA-PK (NU7026), or PARP1 (AZD2281) for 1 h before plasma treatment and kept until cell harvest. […]
# (§2) For immunofluorescence staining, cells were fixed with 4% formaldehyde (Sigma-Aldrich) for 10 min at room temperature and permeabilized with 0.5% Triton™ X-100 (Bio Basic). […] The images were captured using a fluorescence microscope (Nikon) equipped with the NIS-Elements 4.0 Nikon imaging software. For quantification, a minimum of 500 cells were analyzed from each of three independent experiments.
# [2] = test system: A549 and SKMEL2 cells; assay: CHK1 phosphorylation immunofluorescence after kinase inhibitor pretreatment and NTP or NTPO; type: cell-based, human; settings: inhibitor pretreatment (5 or 10 μM, 1 h before plasma), followed by NTP or NTPO; FIG. 3A
# Protocol: as §1, §2
structure (smiles),measurement,setting,value
"O=C(c1cc(Cc2n[nH]c(=O)c3ccccc23)ccc1F)N1CCN(C(=O)C2CC2)CC1 [AZD2281, olaparib]",γH2AX phosphorylation,[1]; PARP-1 inhibitor plus treatment of NTP or NTPO,significantly increased
same,γH2AX phosphorylation,"[1]; PARP-1 inhibitor, gas control",measured even in the case of gas control
CC(C)(C#N)c1ccc(N2C(=O)OCc3cnc4ccc(-c5cnc6ccccc6c5)cc4c32)cc1 [ETP 46464],CHK1 phosphorylation,[2],phosphorylation was not shown
